Assay results from patent publication US10391109B2, “Use of zoledronic acid to prepare drug treating fatty liver disease” (NANJING UNIVERSITY, priority 2015, dated 2019).
“And” between values parts separate entries of the source, which are not always exact repeats. Identical values can stand only once.

Assays:
liver triglyceride [1] = test: Measurement of TG in liver tissue, C57BL/6J mice (foodborne non-alcoholic fatty liver); format: in vivo; details: 50 μg/kg tail vein injection once every two days
Description: (§1) About 50 mg of the right lobe of liver in mice was taken, with an accurate weight recorded. It was washed with PBS, placed in 1 ml of a lysis solution and mechanically homogenized. The lysed tissue homogenate was divided into two portions. One portion, 500 μl, was placed in a metal bath at 70° C., heated for 10 min, and centrifuged for 5 min at 2,000×rpm. 1-10 μl was taken for a tissue TG assay with the kit. Another 500 μl was used for a protein concentration assay using the BCA method.
(§2) According to the forgoing general materials and methods, the mice in the HFD group were first administered with zoledronic acid and placebo. In this example, zoledronic acid was administered mainly by tail vein injection. The primary site of action of the drug was liver. The injection was performed once every two days. The dosage was 50 μg/kg of zoledronic acid. Tissue triglyceride level assay and H&E staining were performed for mice after administration.
(§3) The HFD group is high fat diet group, the RC group is regular chow group, PBS is placebo, ZOL is zoledronic acid, and the dosage is 50 μg/kg.

liver triglyceride [2] = test: Measurement of TG in liver tissue, ob/ob mice (hereditary non-alcoholic fatty liver); format: in vivo
Description: as §1

[3] = test system: hepatic lipid accumulation; test: Oil Red staining of liver cryosections, ob/ob mice; format: in vivo; details: various dosages
Description: An appropriate amount of the right lobe of liver was taken at the same site for laboratory mice in each group, fixed in paraformaldehyde for 2 h, dehyrdated with 30% sucrose for 8-12 h, and embedded in OCT. It was stored in a refrigerator at −70° C. It was sectioned using a Cryostat Microtome at a section thickness of 15 μm.
The cryosections were slightly dried at room temperature, slightly washed with 60% ethanol, stained in an Oil Red 0 staining solution (60% Oil Red 0 stock plus 40% distilled water) for 10-15 min, differentiated in 60% ethanol, washed, subjected to nuclear staining with hematoxylin for 1 min, washed for 1 min, suck dried, and mounted with glycerin.
(§4) Further, the liver structure was shown by H&E staining and the lipid accumulation was shown by Oil Red staining. Injection of zoledronic acid can effectively reduce hepatic lipid accumulation in hereditary obese mice. […] In addition, the use of the zoledronic acid preparation can effectively reduce the body weight of hereditary obese mice, effectively reduce accumulation of epididymal fat pads in mice, and modulate the triglyceride content in body, achieving an effective lipid reducing, lipid lowering, and slimming effect.

blood AST = test: Assay for blood AST level, ob/ob mice; format: in vivo
Description: (§5) After the mice were anaesthetized, blood was collected from the eye socket veins, left at room temperature for 30 min, and centrifuged upon serum precipitation. 10 μl serum was taken for ALT and AST assays with the kit.
(§6) Similar to Example 1, according to the forgoing general materials and methods, ob/ob mice were first administered with zoledronic acid preparation and placebo at various dosages. The blood ALT and AST levels in ob/ob mice after treatment were assayed.

[4] = test system: hepatic lipid accumulation; test: H&E staining of liver paraffin sections, ob/ob mice; format: in vivo; details: various dosages
Description: (§7) An appropriate amount of the right lobe of liver tissue was taken, fixed in 4% paraformaldehyde for 24-48 h, dehyrdated with graded ethanols, cleared with xylene, infiltrated with wax, embedded in paraffin, and sectioned at a thickness of 5 μm.
(§8) The sections were de-waxed in xylene for 10 min and 5 min respectively, and then reconstituted in graded ethanol solutions. The sections were subjected to hematoxylin staining for 4 min, and then slightly washed with distilled water. The sections were blued in 0.25% NH3.H2O for 30 s, and then washed with distilled water. The sections were dehydrated with graded ethanols to 95% ethanol, stained for 2-3 s in 0.5% eosin, dehydrated in 100% ethanol, and soaked in xylene for 2 min. Finally, the sections were mounted in Rhamsan gum.
as §4

[5] = test system: blood alanine transaminase (ALT); test: Assay for blood ALT level, C57BL/6J mice; format: in vivo; details: 50 μg/kg
Description: as §5
(§9) Similar to Example 1, according to the forgoing general materials and methods, the mice in the HFD group were first administered with zoledronic acid and placebo. The blood alanine transaminase (ALT) and aspartate transaminase (AST) levels in mice after administration were assayed.
as §3

[6] = Body weight, liver weight and epididymal fat pad weight in C57BL/6J mice on regular chow or high fat diet after administration; format: in vivo; details: 50 μg/kg
Text: The present inventors first used model mice with foodborne non-alcoholic fatty liver, that is, high-fat diet (containing 60% fat) was used for inducing C57BL/6J mice for 12 weeks to generate fatty liver. It was found from the experimental assay that feeding of high fat diet could result in hepatic fat accumulation and degeneration in mice.
A total of forty 8-week-old C57BL/6J mice were selected, and randomly assigned to 4 groups of 10 mice. The mice were weighted respectively, fed with regular chow (containing 4% fat) and high fat diet (containing 60% fat), and housed for 12 weeks. The mice were weekly weighted and recorded, and curves were plotted. After 12 weeks, the mice with fatty liver fed with regular chow and high fat diet were administered with zoledronic acid and placebo so as to explore the function for relieving fat accumulation. Meanwhile, the resulting changes of physiological indicators for mice were observed, and different body weights and physiological indicators were recorded.
The RC group is regular chow group, the HFD group is high fat diet group, PBS is placebo, ZOL is zoledronic acid, and the dosage is 50 μg/kg.

hepatic lipid content = test: Quantitative analysis of hepatic lipid content in ob/ob mice (Computer Tomography); format: in vivo
[7] = test system: aspartate transaminase (AST); test: Assay for blood AST level, C57BL/6J mice; format: in vivo; details: 50 μg/kg
Description: as §5, §9, §3

[8] = Body weight, liver weight and epididymal fat pad weight in ob/ob mice after administration; format: in vivo
Description: In order to further verify the lipid reducing effect of zoledronic acid, the experiments of the present invention were carried out in ob/ob mice of hereditary obese mice models with severe non-alcoholic fatty liver mainly characterized by lipid accumulation. A total of thirty 10-week-old ob/ob mice were selected, randomly assigned to 3 groups of 10 mice, and housed with regular chow (containing 4% fat). Ob/ob mice were mutant mice mainly manifested as obesity and related metabolic syndrome. […] Ob/ob mice were administered with zoledronic acid and control placebo. The resulting changes of physiological indicators in mice were observed and different body weights and physiological indicators were recorded.

[9] = test system: hepatic macrovesicular steatosis; test: H&E staining of liver paraffin sections, high fat diet mice; format: in vivo, C57BL/6J mice; details: 50 μg/kg injection
Description: as §7, §8, §2

blood ALT = test: Assay for blood ALT level, ob/ob mice; format: in vivo
Description: as §5, §6

Structure (SMILES): O=P(O)(O)C(O)(Cn1ccnc1)P(=O)(O)O [ZOL, 1-hydroxy-2-(imidazol-1-yl)-ethylidene-1,1-bisphosphonic acid]
- Average decline of liver triglyceride vs PBS (liver triglyceride [1]; HFD group): 44.9%
- Liver triglyceride (liver triglyceride [1]; HFD group): 38.18 ± 10.27 mg/g
- Average decline of liver triglyceride vs PBS (liver triglyceride [1]; RC group): 12.5%
- Liver triglyceride (liver triglyceride [1]; RC group): 14.33 ± 6.39 mg/g
- Average decline of liver triglyceride vs PBS (liver triglyceride [2]; ZOL50 (50 μg/kg)): No significant change
- Liver triglyceride (liver triglyceride [2]; ZOL50 (50 μg/kg)): 140.88 ± 44.29 mg/g
- Average decline of liver triglyceride vs PBS (liver triglyceride [2]; ZOL200 (200 μg/kg)): 34%
- Liver triglyceride (liver triglyceride [2]; ZOL200 (200 μg/kg)): 98.49 ± 40.08 mg/g
- Liver histology, Oil Red staining (FIG. 8) [3]: significant decrease in hepatic lipid accumulation
- AST IU/L (blood AST; ZOL50 (50 μg/kg)): 240.25 ± 70.54 IU/L
- Average decline of AST vs PBS (blood AST; ZOL50 (50 μg/kg)): 30.4%
- AST IU/L (blood AST; ZOL200 (200 μg/kg)): 269.75 ± 71.53 IU/L
- Average decline of AST vs PBS (blood AST; ZOL200 (200 μg/kg)): 21.9%
- Liver histology, H&E staining (FIG. 7) [4]: significant decrease in hepatic lipid accumulation
- ALT IU/L ([5]; HFD group): 62.8 ± 14.08 IU/L
- Average decline of ALT vs PBS ([5]; HFD group): 45.2% and 44.7%
- ALT IU/L ([5]; RC group): 39.2 ± 12.09 IU/L
- Average decline of ALT vs PBS ([5]; RC group): no significant changes
- Average body weight/g ([6]; HFD group (high fat diet)): 36.73 ± 3.74 g
- Average decline of average body weight vs PBS ([6]; HFD group (high fat diet)): 16%
- Average decline of average epididymal fat pad weight vs PBS ([6]; HFD group (high fat diet)): 30%
- Average decline of average liver weight vs PBS ([6]; HFD group (high fat diet)): 29%
- Average epididymal fat pad weight/g ([6]; HFD group (high fat diet)): 2.33 ± 0.62 g
- Average liver weight/g ([6]; HFD group (high fat diet)): 1.41 ± 0.17 g
- Average body weight/g ([6]; RC group (regular chow)): 26.72 ± 1.69 g
- Average decline of average body weight vs PBS ([6]; RC group (regular chow)): 13%
- Average decline of average epididymal fat pad weight vs PBS ([6]; RC group (regular chow)): 39%
- Average decline of average liver weight vs PBS ([6]; RC group (regular chow)): 17%
- Average epididymal fat pad weight/g ([6]; RC group (regular chow)): 0.46 ± 0.11 g
- Average liver weight/g ([6]; RC group (regular chow)): 1.28 ± 0.08 g
- Average decline of lipid content vs PBS (hepatic lipid content; ZOL50 (50 μg/kg)): 20.4%
- Lipid content (hepatic lipid content; ZOL50 (50 μg/kg)): 592.00 ± 201.08 mg/mL
- Average decline of lipid content vs PBS (hepatic lipid content; ZOL200 (200 μg/kg)): 34%
- Lipid content (hepatic lipid content; ZOL200 (200 μg/kg)): 490.22 ± 211.95 mg/mL
- AST IU/L ([7]; HFD group): 76 ± 31.42 IU/L
- Average decline of AST vs PBS ([7]; HFD group): 44.7% and 45.2%
- AST IU/L ([7]; RC group): 52.4 ± 21.20 IU/L
- Average decline of AST vs PBS ([7]; RC group): no significant changes
- Average body weight/g ([8]; ZOL50 (50 μg/kg)): 50.56 ± 2.82 g
- Average decline of average body weight vs PBS ([8]; ZOL50 (50 μg/kg)): 7%
- Average decline of average epididymal fat pad weight vs PBS ([8]; ZOL50 (50 μg/kg)): 39%
- Average decline of average liver weight vs PBS ([8]; ZOL50 (50 μg/kg)): 17%
- Average epididymal fat pad weight/g ([8]; ZOL50 (50 μg/kg)): 3.628 ± 0.27 g
- Average liver weight/g ([8]; ZOL50 (50 μg/kg)): 3.47 ± 0.58 g
- Average body weight/g ([8]; ZOL200 (200 μg/kg)): 45.94 ± 5.16 g
- Average decline of average body weight vs PBS ([8]; ZOL200 (200 μg/kg)): 15%
- Average decline of average epididymal fat pad weight vs PBS ([8]; ZOL200 (200 μg/kg)): 4%
- Average decline of average liver weight vs PBS ([8]; ZOL200 (200 μg/kg)): 46%
- Average epididymal fat pad weight/g ([8]; ZOL200 (200 μg/kg)): 3.79 ± 0.30 g
- Average liver weight/g ([8]; ZOL200 (200 μg/kg)): 2.26 ± 0.21 g
- Liver histology, H&E staining (FIG. 3) [9]: significant remission in hepatic macrovesicular steatosis
- ALT IU/L (blood ALT; ZOL50 (50 μg/kg)): 281.6 ± 142.59 IU/L
- Average decline of ALT vs PBS (blood ALT; ZOL50 (50 μg/kg)): 42.5%
- ALT IU/L (blood ALT; ZOL200 (200 μg/kg)): 277.4 ± 188.65 IU/L
- Average decline of ALT vs PBS (blood ALT; ZOL200 (200 μg/kg)): 43.4%
